According to PubChem BioAssay AID1918941 (Molecular Pharmacology Branch, DTP, NCI, 2023):
Values joined by “and” are separate entries in the source; they are usually repeats but may differ in a detail not shown here. Equal entries are not always repeated.

Test system: SW 1271 complex spheroids, viability
Assay: Anticancer human tumor SW 1271 cell line growth inhibition [LSD1];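 also: spheroids exposed to agents for 7 days before luminescence read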;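 as to viability, T/C: 100% = DMSO vehicle control viability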
Conditions: for viability, T/C: stronger effect = lower value
In short: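 Complex spheroids of tumor cells with HUVEC and human MSCs, exposed to iadademstat combined with other agents. Each agent tested in half-log steps from near clinical Cmax (else 10 microM top), DMSO ≤0.25%.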

[1] = curve of first compound, second compound 0.1 µM
[2] = curve of first compound, second compound 0.316 µM
[3] = curve of first compound, second compound 1 µM
[4] = curve of first compound, second compound 3.16 µM
[5] = curve of first compound, second compound 10 µM
[6] = second compound 0.1 µM, first compound 0.00949 µM
[7] = second compound 0.1 µM, first compound 0.03 µM
[8] = second compound 0.1 µM, first compound 0.0949 µM
[9] = second compound 0.1 µM, first compound 0.3 µM
[10] = second compound 0.1 µM, first compound 0.949 µM
[11] = second compound 0.1 µM, first compound 3 µM
[12] = second compound 0.316 µM, first compound 0.00949 µM
[13] = second compound 0.316 µM, first compound 0.03 µM
[14] = second compound 0.316 µM, first compound 0.0949 µM
[15] = second compound 0.316 µM, first compound 0.3 µM
[16] = second compound 0.316 µM, first compound 0.949 µM
[17] = second compound 0.316 µM, first compound 3 µM
[18] = second compound 1 µM, first compound 0.00949 µM
[19] = second compound 1 µM, first compound 0.03 µM
[20] = second compound 1 µM, first compound 0.0949 µM
[21] = second compound 1 µM, first compound 0.3 µM
[22] = second compound 1 µM, first compound 0.949 µM
[23] = second compound 1 µM, first compound 3 µM
[24] = second compound 3.16 µM, first compound 0.00949 µM
[25] = second compound 3.16 µM, first compound 0.03 µM
[26] = second compound 3.16 µM, first compound 0.0949 µM
[27] = second compound 3.16 µM, first compound 0.3 µM
[28] = second compound 3.16 µM, first compound 0.949 µM
[29] = second compound 3.16 µM, first compound 3 µM
[30] = second compound 10 µM, first compound 0.00949 µM
[31] = second compound 10 µM, first compound 0.03 µM
[32] = second compound 10 µM, first compound 0.0949 µM
[33] = second compound 10 µM, first compound 0.3 µM
[34] = second compound 10 µM, first compound 0.949 µM
[35] = second compound 10 µM, first compound 3 µM

CCN(c1cc(-c2ccc(CN3CCOCC3)cc2)cc(C(=O)NCc2c(C)cc(C)[nH]c2=O)c1C)C1CCOCC1 + NC1CC1c1ccc(-c2cccc(O)c2)cc1
IC50 [1]: > 3000 nM
IC50 [2]: > 3000 nM
IC50 [3]: > 3000 nM
IC50 [4]: > 3000 nM
IC50 [5]: > 3000 nM
viability, T/C [6]: 83.2%
viability, T/C [7]: 82.9%
viability, T/C [8]: 86%
viability, T/C [9]: 72.4%
viability, T/C [10]: 68.2%
viability, T/C [11]: 60%
viability, T/C [12]: 83.9%
viability, T/C [13]: 82.2%
viability, T/C [14]: 74.6%
viability, T/C [15]: 72.4%
viability, T/C [16]: 71.3%
viability, T/C [17]: 57.3%
viability, T/C [18]: 82.1%
viability, T/C [19]: 78.4%
viability, T/C [20]: 83.8%
viability, T/C [21]: 64.8%
viability, T/C [22]: 59.4%
viability, T/C [23]: 56.3%
viability, T/C [24]: 80.6%
viability, T/C [25]: 85.1%
viability, T/C [26]: 78.1%
viability, T/C [27]: 65.7%
viability, T/C [28]: 63.7%
viability, T/C [29]: 56.2%
viability, T/C [30]: 66.9%
viability, T/C [31]: 66.8%
viability, T/C [32]: 64.8%
viability, T/C [33]: 51.8%
viability, T/C [34]: 58.7%
viability, T/C [35]: 58.2%

CC(C)CC(NC(=O)CNC(=O)c1cc(Cl)ccc1Cl)B1OC(=O)CC(CC(=O)O)(C(=O)O)O1 (configuration not stated)
viability, T/C (compound 0.000316 µM): 99.2% and 97.3%
viability, T/C (compound 0.001 µM): 91.3% and 86.2%
viability, T/C (compound 0.00316 µM): 74.4% and 88%
viability, T/C (compound 0.01 µM): 6.54% and 16.7%
viability, T/C (compound 0.0316 µM): 0.32% and 0.39%
viability, T/C (compound 0.1 µM): 0.31% and 0.4%
IC50 (curve of compound): 4.78 nM and 5.84 nM

O=C(C=Cc1cccc(S(=O)(=O)Nc2ccccc2)c1)NO + NC1CCC(NC2CC2c2ccccc2)CC1
IC50 [1]: 167 nM
IC50 [2]: 122 nM
IC50 [3]: 88.5 nM
IC50 [4]: 606 nM
IC50 [5]: 84.7 nM
viability, T/C [6]: 72.1%
viability, T/C [7]: 72.1%
viability, T/C [8]: 57.9%
viability, T/C [9]: 22.7%
viability, T/C [10]: 6.87%
viability, T/C [11]: 96%
viability, T/C [12]: 88.8%
viability, T/C [13]: 69.8%
viability, T/C [14]: 61.9%
viability, T/C [15]: 18.5%
viability, T/C [16]: 7.13%
viability, T/C [17]: 97.9%
viability, T/C [18]: 78.8%
viability, T/C [19]: 68.8%
viability, T/C [20]: 52.4%
viability, T/C [21]: 19.1%
viability, T/C [22]: 8.74%
viability, T/C [23]: 102%
viability, T/C [24]: 88.6%
viability, T/C [25]: 72.9%
viability, T/C [26]: 56.1%
viability, T/C [27]: 26.4%
viability, T/C [28]: 6.99%
viability, T/C [29]: 108%
viability, T/C [30]: 85.3%
viability, T/C [31]: 75.7%
viability, T/C [32]: 48.8%
viability, T/C [33]: 22.1%
viability, T/C [34]: 7.93%
viability, T/C [35]: 98.2%

COc1ccc([C@@H](O)c2cc(-c3ncnc4cc(N5CCOCC5)ccc34)c(F)cc2Cl)nn1 + NC1CCC(NC2CC2c2ccccc2)CC1
IC50 [1]: 811 nM
IC50 [2]: 542 nM
IC50 [3]: 608 nM
IC50 [4]: 836 nM
IC50 [5]: 436 nM
viability, T/C (second compound 0.1 µM, first compound 0.0316 µM): 92%
viability, T/C (second compound 0.1 µM, first compound 0.1 µM): 84.7%
viability, T/C (second compound 0.1 µM, first compound 0.316 µM): 62.1%
viability, T/C (second compound 0.1 µM, first compound 1 µM): 49.4%
viability, T/C (second compound 0.1 µM, first compound 3.16 µM): 29.2%
viability, T/C (second compound 0.1 µM, first compound 10 µM): 21%
viability, T/C (second compound 0.316 µM, first compound 0.0316 µM): 82.1%
viability, T/C (second compound 0.316 µM, first compound 0.1 µM): 70.6%
viability, T/C (second compound 0.316 µM, first compound 0.316 µM): 58.2%
viability, T/C (second compound 0.316 µM, first compound 1 µM): 40.8%
viability, T/C (second compound 0.316 µM, first compound 3.16 µM): 30.3%
viability, T/C (second compound 0.316 µM, first compound 10 µM): 21.4%
viability, T/C (second compound 1 µM, first compound 0.0316 µM): 75%
viability, T/C (second compound 1 µM, first compound 0.1 µM): 65.3%
viability, T/C (second compound 1 µM, first compound 0.316 µM): 65.2%
viability, T/C (second compound 1 µM, first compound 1 µM): 38.7%
viability, T/C (second compound 1 µM, first compound 3.16 µM): 27.5%
viability, T/C (second compound 1 µM, first compound 10 µM): 21.6%
viability, T/C (second compound 3.16 µM, first compound 0.0316 µM): 68%
viability, T/C (second compound 3.16 µM, first compound 0.1 µM): 65.2%
viability, T/C (second compound 3.16 µM, first compound 0.316 µM): 66.2%
viability, T/C (second compound 3.16 µM, first compound 1 µM): 46.3%
viability, T/C (second compound 3.16 µM, first compound 3.16 µM): 25.5%
viability, T/C (second compound 3.16 µM, first compound 10 µM): 16.7%
viability, T/C (second compound 10 µM, first compound 0.0316 µM): 89.4%
viability, T/C (second compound 10 µM, first compound 0.1 µM): 60%
viability, T/C (second compound 10 µM, first compound 0.316 µM): 50.4%
viability, T/C (second compound 10 µM, first compound 1 µM): 49%
viability, T/C (second compound 10 µM, first compound 3.16 µM): 26.6%
viability, T/C (second compound 10 µM, first compound 10 µM): 14.9%
